Entries after “also recorded” stand apart in the source; their conditions may differ.
Assays:
[1] = system: neutrophil chemotaxis; details: Tanaka et al.; cited from earlier work
[2] = system: cytochalasin B primed neutrophils; assay: Enzyme release from neutrophils (β-D-glucuronidase, microtiter plate); type: cell-based, human; details: 37° C., 30 min, FIG. 3
Experimental: Neutrophil enzyme release was measured by a modification of the method of Goldstein and colleagues.^23 Cytochalasin B (Sigma Chemical Co., St. Louis, Mo.) was stored in dimethylsulphoxide at a concentration of 5 mg/ml and diluted to a concentration of 100 μg/ml in Hanks' balanced salt solution (HBSS) immediately before use. Neutrophils were prepared as described and incubated at a cell density of 5×10^6 cells/ml for ten minutes at room temperature in the presence of Cytochalasin B (10 μg/ml). Aliquots of 100 μl of the primed cell suspension were then distributed into the wells of a 96-well microtiter plate and 100 μl of stimulant was added. The cells were then incubated at 37° C. for 30 min. The plates were centrifuged at 850 rpm for 5 min, and 100 μl of supernatant was removed. The supernatants were assayed for β-D-glucuronidase activity.
The ability of native NAF and the synthetic peptides to induce the release of β-D-glucuronidase from cytochalasin B primed neutrophils was examined using a microtiter plate technique. […]
β-D-glucuronidase was measured by determining the change in absorbance of phenolphthalein β-D-glucuronide (Sigma Chemical Co.) at 540 nm by the method of Gianetto and DeDuve.^24 The results were expressed as picomoles of substrate hydrolysed per hour.

[3] = system: human neutrophils; assay: Neutrophil chemotaxis, leading front method in blind well chamber (chemotactic activity of the peptide itself); type: cell-based; details: for DISTANCE MOVED (% of control): control = RPMI-1640; for effect on cell migration (in words): peptide concentration of 1×10^-9 M, FIG. 1
Experimental: Each of the peptides was assayed for its ability to induce the directed migration of neutrophils towards itself. […] The distances migrated by the cells, under the influence of the various peptides, was therefore expressed as a percentage of the distance travelled in RPMI tissue culture medium alone. In the first experiments the effect of native NAF on the cells was compared to that of FMLP (FIG. I). […] None of the synthetic peptides induced chemotaxis either alone or in combination with one another when the synthetic peptides were examined under the same conditions (FIG. 2).
(§1) Human blood was anticoagulated with heparin.
(§2) Chemotaxis was performed using the leading front method as described by Zigmond and Hirsch.^21 The test material was placed in the lower well of a blind well chemotaxis chamber.^22 A five micron pore size, and 100 μl aliquot of the neutrophil preparation (1×10^6 cells/ml) in RPMI-1640 containing 1% albumin was added to the top of the filter and incubated at 37° C. for 30 min. (In some experiments neutrophils were pre-incubated in the presence of peptide for 10 min at room temperature before being added to the upper chamber.) The filter was then fixed and stained and mounted on a glass microscope slide. The leading front was determined by the position of the leading two cells. The distance that the leading two cells had moved through the filter was measured for six fields on each filter. The measurements were made with two filters for each set of conditions.

[4] = system: chemotaxis induced by FMLP; assay: Specificity: effect on FMLP-induced neutrophil chemotaxis; type: cell-based, human; details: FMLP 5 × 10^-9 M plus peptide 1 × 10^-6 M
Text: The peptides were examined to determine if any of the peptides could block the action of the native molecule. In these experiments the attractant in the lower well of the Boyden chamber contained both native NAF (1×10^-8 M) and one or more synthetic peptide(s) (1×10^-6 M) Table 2. The migration of the cells in RPMI tissue culture medium alone, or under the influence of native NAF or the individual peptides was also examined in each experiment. […] The mean migration of native NAF was an average of 79% (S.D.=3) above that of buffer alone, while the mean migration towards native NAF in the presence of NAF (3-25) was 32% (S.D.=10) and the mean migration towards native NAF in the presence of NAF (44-72) (S.D.=13) was 52% above control migration (Table 2). These reductions are statistically significant at p<0.002 by Student's t test. […]
Chemotaxis was performed using the leading front method as described by Zigmond and Hirsch.^21 The test material was placed in the lower well of a blind well chemotaxis chamber.^22 A five micron pore size, and 100 μl aliquot of the neutrophil preparation (1×10^6 cells/ml) in RPMI-1640 containing 1% albumin was added to the top of the filter and incubated at 37° C. for 30 min. […] The leading front was determined by the position of the leading two cells. The distance that the leading two cells had moved through the filter was measured for six fields on each filter. […]

[5] = system: Neutrophil activating factor induced human neutrophil chemotaxis; assay: Inhibition of NAF-induced neutrophil chemotaxis; type: cell-based
Text: The peptides were examined to determine if any of the peptides could block the action of the native molecule. In these experiments the attractant in the lower well of the Boyden chamber contained both native NAF (1×10^-8 M) and one or more synthetic peptide(s) (1×10^-6 M) Table 2. The migration of the cells in RPMI tissue culture medium alone, or under the influence of native NAF or the individual peptides was also examined in each experiment. […] The mean migration of native NAF was an average of 79% (S.D.=3) above that of buffer alone, while the mean migration towards native NAF in the presence of NAF (3-25) was 32% (S.D.=10) and the mean migration towards native NAF in the presence of NAF (44-72) (S.D.=13) was 52% above control migration (Table 2). These reductions are statistically significant at p<0.002 by Student's t test. These two peptides inhibited NAF induced migration by 59 and 34% respectively. When NAF was incubated in the presence of both peptides the mean migration towards native NAF was 24% (S.D.=3) above controls for a total inhibition of NAF activity of 70%. Therefore, the inhibitory effects of the peptides were approximately additive.
as §1, §2

[6] = NAF 1 × 10^-8 M plus peptide 1 × 10^-6 M in lower well
[7] = NAF 1 × 10^-8 M, neutrophils preincubated with peptide 1 × 10^-6 M (10 min, room temperature)

In the case of “(7-37): peptide of Tanaka et al. corresponding to residues (7-37) of the NAF sequence (AKELRCQCIKTYSKPFHPKFIKELRVIESGP; Interleukin-8; UniProt P10145 29-59, looked up, fragment)”, the “chemotactic activity (in words)” value [1] is listed as “inactive” and the “inhibition of chemotaxis (in words)” value [1] is listed as “did not find that any of their synthetic peptides inhibited chemotaxis”.
In the case of “(17-37): peptide of Tanaka et al. corresponding to residues (17-37) of the NAF sequence (TYSKPFHPKFIKELRVIESGP; Interleukin-8; UniProt P10145 39-59, looked up, fragment)”, the “chemotactic activity (in words)” value [1] is listed as “inactive” and the “inhibition of chemotaxis (in words)” value [1] is listed as “did not find that any of their synthetic peptides inhibited chemotaxis”.
For “(30-72): peptide of Tanaka et al. corresponding to residues (30-72) of the NAF sequence (LRVIESGPHCANTEIIVKLSDGRELCLDPKENWVQRVVEKFLK; Interleukin-8; UniProt P10145 52-94, looked up, fragment)”, the “chemotactic activity (in words)” value [1] is listed as “inactive” and the “inhibition of chemotaxis (in words)” value [1] is listed as “did not find that any of their synthetic peptides inhibited chemotaxis”.
In the case of FMLP, the “release of β-D-glucuronidase from neutrophils (in words)” value [2] is reported as “stimulated release from the cells was possible”, the “DISTANCE MOVED (% of control)” value ([3]; FMLP alone, 5 × 10^-9 M) is reported as 180 ± 17 % of control and the “effect on cell migration (in words)” value [3] is reported as “increase the cell migration”.
With KELRCQCIKTYSKPFHPKFIKEL [NAF(3-25)] the “DISTANCE MOVED (% of control)” value [4] was 190 ± 18 % of control, the “DISTANCE MOVED (% of control)” value [5, 6] was 132 ± 10 % of control and the “INHIBITION (%) of NAF-induced neutrophil chemotaxis” value (“INHIBITION (%)” below) [5, 6] was 59 ± 13%. The “INHIBITION (%)” value ([5]; NAF 1 × 10^-8 M plus peptide 1 × 10^-6 M in lower well, listed as NAF (3-25)) was 59%, the “DISTANCE MOVED (% of control)” value [5, 7] was 97 ± 11 % of control and the “INHIBITION (%)” value [5, 7] was 104 ± 14%. For the same substance, the “mean migration towards native NAF in the presence of peptide, above control migration” value ([5]; native NAF 1 × 10^-8 M plus synthetic peptide(s) 1 × 10^-6 M) was 32%, the “effect on the action of native NAF (in words)” value ([5]; native NAF plus synthetic peptide) was “able to reduce neutrophil chemotaxis; also recorded: reduce the action of native NAF” and the “DISTANCE MOVED (% of control)” value ([3]; synthetic peptide alone, 1 × 10^-6 M in lower well) was 100 ± 6 % of control.
For Neutrophil activating factor [NAF], the “release of β-D-glucuronidase from neutrophils (in words)” value [2] was “Neither NAF nor any of the synthetic peptides caused the cells to degranulate; also recorded: failed to release β-D-glucuronidase; also recorded: None of the synthetic peptides, nor native NAF, caused release of β-D-glucuronidase”, the “DISTANCE MOVED (% of control)” value ([3]; NAF alone, 1 × 10^-8 M) was 179 ± 3 % of control and the “mean migration above that of buffer alone” value ([3]; native NAF 1 × 10^-8 M) was 79%. The “effect on cell migration (in words)” value [3] was “increase the cell migration”.

From patent US5079228A, “Peptide inhibitors of neutrophil activating factor induced chemotaxis” (Board of Regents, The University of Texas System, priority 1990, dated 1992)
